Each structure is given as a SMILES string.

The species named for test [1] is Oryctolagus cuniculus. In words: Antagonist activity against L-type calcium channel in New Zealand white rabbit basilar artery assessed as vasodilation by measuring effect on 50 mM K+-stimulated depolarization-induced constriction at 10 uM. It counts as tissue-based. Also noted: scale not given: the % may be the effect or the level left.
A short description of test [2]: Antagonist activity against L-type calcium channel in New Zealand white rabbit basilar artery assessed as vasodilation by measuring effect on 50 mM K+-stimulated depolarization-induced constriction. It counts as tissue-based, Oryctolagus cuniculus.
Test [3] is filed under the species Oryctolagus cuniculus. In words: Antagonist activity against endothelin A/B2 receptor in New Zealand white rabbit basilar artery assessed as vasodilation by measuring effect on endothelin-1-induced constriction at 10 uM. Type of test: tissue-based. Also noted: scale not given: the % may be the effect or the level left.
Test [4] in a line: Antagonist activity against endothelin A/B2 receptor in New Zealand white rabbit basilar artery assessed as vasodilation by measuring effect on endothelin-1-induced constriction. Type of test: tissue-based, Oryctolagus cuniculus.

The term EC50 denotes the midpoint of the concentration-response curve. Turning to `COc1cc(/C=C/C(=O)c2cccc(NS(=O)(=O)c3ccc(C)cc3)c2)ccc1O`, the Activity in test [1] stood at 98.7%; in test [3] it was 99.6%. For the same molecule, the EC50 in test [2] is 3.67 µM; in test [4], 2.7 µM.
As for `COc1cc(/C=C/C(=O)c2cccc(NS(=O)(=O)C(C)C)c2)ccc1O`, the Activity in test [1] came out at 20.5%; in test [3], 31.2%.
As to `COc1cc(/C=C/C(=O)c2cccc(NS(=O)(=O)c3c(Cl)cccc3Cl)c2)ccc1O`, the Activity in test [1] was found to be 99.4%; in test [3], 99.8%. The EC50 came to 2.78 µM in test [2] and 1.8 µM in test [4].
Consider `COc1cc(/C=C/C(=O)c2cccc(NS(C)(=O)=O)c2)ccc1O`, for which the Activity was 4.2% in test [1] and 22.3% in test [3].
On the same counts, the results for `COc1ccc(S(=O)(=O)Nc2cccc(C(=O)/C=C/c3ccc(O)c(OC)c3)c2)cc1` are 26.4% and 56.8%.
The like results for `COc1cc(/C=C/C(=O)c2cccc(NS(=O)(=O)c3cc(Cl)ccc3Cl)c2)ccc1O` were, in that order, 53.4% and 30.4%.
For the molecule `COc1cc(/C=C/C(=O)c2cccc(NS(=O)(=O)c3ccc(Cl)cc3Cl)c2)ccc1O`, the Activity in test [1] is 4.2%; in test [3] it was 83.4%. The EC50 in test [4] is 8.8 µM.
Take `COc1cc(/C=C/C(=O)c2cccc(NS(=O)(=O)c3ccc(C(F)(F)F)cc3)c2)ccc1O`: the Activity in test [1] was determined as 65.8%; in test [3] it was 46.1%.
On to `COc1cc(/C=C/C(=O)c2cccc(NS(=O)(=O)c3ccc(F)cc3)c2)ccc1O`, for which the Activity in test [1] is 71.8%; in test [3], 75.1%. In addition, the EC50 in test [4] was determined as 6.4 µM.
On to `COc1cc(/C=C/C(=O)c2cccc(NS(=O)(=O)c3ccccc3)c2)ccc1O`, for which the Activity in test [1] was found to be 50.4%; in test [3] it was 40.2%.
Turning to `COc1cc(/C=C/C(=O)c2cccc(NS(=O)(=O)c3ccc([N+](=O)[O-])cc3)c2)ccc1O`, the Activity in test [1] was determined as 70.7%; in test [3], 98.9%. In addition, the EC50 in test [4] was found to be 3.9 µM.
Take `COc1cc(/C=C/C(=O)c2cccc(NS(=O)(=O)c3cc(Cl)cc(Cl)c3)c2)ccc1O`: the Activity in test [1] turned out to be 37.3%; in test [3], 55.9%.
Regarding `COc1cc(/C=C/C(=O)c2cccc(NS(=O)(=O)c3cccc(C(F)(F)F)c3)c2)ccc1O`, the Activity is 52.3% in test [1] and 36.5% in test [3].
As for `CCCS(=O)(=O)Nc1cccc(C(=O)/C=C/c2ccc(O)c(OC)c2)c1`, the Activity in test [1] was 42.3%; in test [3], 30.8%.
The like results for `COc1cc(/C=C/C(=O)c2cccc(NS(=O)(=O)c3ccc(C(C)=O)cc3)c2)ccc1O` were, in that order, 67.9% and 68.7%.
For the molecule `COc1cc(/C=C/C(=O)c2cccc(NS(=O)(=O)c3ccc(Cl)cc3)c2)ccc1O`, the Activity is 93.4% in test [1] and 78.3% in test [3]. For the same molecule, the EC50 came to 5.58 µM in test [2] and 5.9 µM in test [4].
In the case of `COc1cc(/C=C/C(=O)c2cccc(NS(=O)(=O)c3ccc(OC(F)(F)F)cc3)c2)ccc1O`, the Activity in test [1] came out at 76.7%; in test [3] it was 81.4%. Moreover, in test [4], the EC50 turned out to be 6.1 µM.
For the molecule `COc1cc(/C=C/C(=O)c2cccc(NS(=O)(=O)C(F)(F)F)c2)ccc1O`, the values for the Activity in test [1] and in test [3] were 10.7% and 34.6%, respectively.
On the same counts, the results for `COc1cc(/C=C/C(=O)c2cccc(NS(=O)(=O)c3ccc(Cl)c(Cl)c3)c2)ccc1O` are 30.2% and 41.8%.
The like results for `CCS(=O)(=O)Nc1cccc(C(=O)/C=C/c2ccc(O)c(OC)c2)c1` were, in that order, 55.3% and 19.7%.
Consider `COc1cc(/C=C/C(=O)CC(=O)/C=C/c2ccc(O)c(OC)c2)ccc1O` [CURCUMIN], for which the Activity in test [1] was 58.4%; in test [3], 8.5%. The EC50 in test [2] was found to be 7.48 µM; in test [4], 48.5 µM.
Take `COc1cc(/C=C/C(=O)c2cccc(NS(=O)(=O)c3cccs3)c2)ccc1O`: the Activity worked out at 32.4% in test [1] and 39.1% in test [3].

The record behind these values is ChEMBL document CHEMBL3621039, “Synthesis of alkylsulfonyl and substituted benzenesulfonyl curcumin mimics as dual antagonist of L-type Ca(2+) channel and endothelin A/B2 receptor” (Bioorg Med Chem, 2015).
